Experimental data taken from PubChem BioAssay (NCI).
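Growth conditions: 96-well plates. Treatment: test compound, 48 hours, 5 concentrations. Analysis: linear interpolation between bracketing concentrations; unreached endpoints set to highest concentration. GI50 marks 50% less growth. The concentration for full growth arrest is given as TGI.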 Where a SMILES comes first, the peptide text is derived from it.

Key:
Experiment in all cases: inhibition of tumour cell growth, NCI panel, 48 h
[1] = system: BT-549 breast
[2] = system: CCRF-CEM leukemia
[3] = system: HOP-62 NSCLC
[4] = system: MCF7 breast
[5] = system: MDA-MB-435
[6] = system: NCI-H226 lung
[7] = system: T-47D breast
[8] = system: UO-31 renal
[9] = system: NCI-H522 lung
[10] = system: SF-539 CNS

| SMILES | TGI [1] [µM] | TGI [2] [µM] | TGI [3] [µM] | TGI [4] [µM] | TGI [5] [µM] | TGI [6] [µM] | TGI [7] [µM] | TGI [8] [µM] | TGI [9] [µM] | TGI [10] [µM] | GI50 [1] [µM] | GI50 [2] [µM] | GI50 [3] [µM] | GI50 [4] [µM] | GI50 [5] [µM] | GI50 [6] [µM] | GI50 [9] [µM] | GI50 [10] [µM] | GI50 [7] [µM] | GI50 [8] [µM] |
| --- | --- | --- | --- | --- | --- | --- | --- | --- | --- | --- | --- | --- | --- | --- | --- | --- | --- | --- | --- | --- |
| CCc1n[nH]c(=O)n1/N=C(\C)c1ccc([N+](=O)[O-])cc1 | > 100 | > 100 | > 100 | > 100 | > 100 | > 100 | > 100 | > 100 | – | – | – | – | – | – | – | – | – | – | – | – |
| O=C(NC(Cc1ccc(Br)cc1)C(=O)O)c1ccc(I)cc1 (stereo unspecified) | – | > 100 | > 100 | > 100 | – | > 100 | – | > 100 | > 100 | > 100 | – | – | – | – | – | – | – | – | – | – |
| CCCCCCCCCCCCCC1=C(O)C(=O)C(CC2=C(O)C(=O)C(CCCCCCCCCCCCC)=C(O)C2=O)=C(O)C1=O | > 100 | > 100 | – | > 100 | – | > 100 | > 100 | > 100 | > 100 | > 100 | – | – | – | – | – | – | – | – | – | – |
| O=C1c2cccnc2C(=O)c2c1c(C(=O)OCCN1CCCCC1)c1ccccn21 | 2.16 | 5 | 0.0313 | 0.0767 | 0.829 | 0.0867 | 7.4 | 1.67 | 0.0992 | 0.155 | 0.152 | 0.294 | 0.00554 | 0.00575 | 0.0804 | 0.0135 | 0.018 | 0.0174 | 0.515 | 0.0389 |
| Cc1cc2c(c(O)c1-c1c(C)cc(O)c3c1C(=O)C=CC3=O)C(=O)C=CC2=O | > 25.5 | – | 56.5 | – | – | 73.5 | 3.67 | 3.44 | – | 31.7 | – | – | – | – | – | – | – | – | – | – |
| O=C(Oc1c(Cl)cc(C2(c3cc(Cl)c(OC(=O)c4ccccc4)c(Cl)c3)CCCCC2)cc1Cl)c1ccccc1 | 27.9 | 30.1 | 33.9 | 25.2 | 24.7 | 42.5 | 37.2 | 35.3 | 29.3 | 29.2 | – | – | – | – | – | – | – | – | – | – |
| CC1C(=O)CC(c2cccs2)N(N=O)C1c1cccs1 (stereo unspecified) | – | > 100 | > 100 | 88.5 | – | > 100 | – | > 100 | > 100 | > 100 | – | – | – | – | – | – | – | – | – | – |
| CC1(CO)COS(=O)OC1 (stereo unspecified) | – | > 100 | – | > 100 | > 100 | > 100 | > 100 | > 100 | > 100 | – | – | – | – | – | – | – | – | – | – | – |
| OC[C@H]1NC[C@@H](O)[C@@H](O)[C@H]1O | > 100 | > 100 | > 100 | > 100 | > 100 | > 100 | > 100 | > 100 | – | – | – | – | – | – | – | – | – | – | – | – |
| O=C(CSCC(=O)N/N=C/c1ccccc1)N/N=C\c1ccccc1 | 18.9 | > 100 | > 100 | > 100 | > 100 | > 100 | > 100 | > 100 | > 100 | > 100 | – | – | – | – | – | – | – | – | – | – |
| S=c1c2[nH]cnc2ncn1CCSC1=NC=NC2=NC=NC21 (stereo unspecified) | > 100 | > 100 | > 100 | > 100 | > 100 | > 100 | > 100 | > 100 | > 100 | > 100 | – | – | – | – | – | – | – | – | – | – |
| Cc1[nH]c(=O)[nH]c(=O)c1/C=C/C(=O)NC(CO)CS(=O)CS(C)=O (stereo unspecified) | – | 111 | 94.5 | 125 | – | 77.3 | – | 130 | 32.3 | 51.5 | – | – | – | – | – | – | – | – | – | – |
| COc1ccc(-c2nc3c(nc2-c2ccc(OC)cc2)C(N)=NS(=O)(=O)N3)cc1 | – | > 100 | > 100 | – | – | > 100 | – | > 100 | > 100 | > 100 | – | – | – | – | – | – | – | – | – | – |
| CSc1nc(CO)c(CO)n1C | – | > 100 | > 100 | > 100 | – | > 100 | – | > 100 | > 100 | > 100 | – | – | – | – | – | – | – | – | – | – |
| CN(Cc1cn(O)c2nc(=N)nc(N)c-2n1)c1ccc(C(=O)NC23CC4CC(CC(C4)C2)C3)cc1 | 79.1 | > 100 | > 100 | > 100 | > 100 | > 100 | > 100 | > 100 | – | – | – | – | – | – | – | – | – | – | – | – |
| NC(=O)C1CCCN1C(=O)C(N)Cc1ccccc1 (stereo not drawn) (H-Phe-Pro-NH2; configuration not given here) | – | > 100 | > 100 | > 100 | > 100 | – | > 100 | > 100 | > 100 | – | – | – | – | – | – | – | – | – | – | – |
